From ChEMBL document CHEMBL6115010, “Targeting glioma with heteroaromatic alkaloids: A review of potential therapeutics” (Bioorg Med Chem, 2025) come the findings set out here.

Each structure is given as a SMILES string.

The nature of test [1]: Anticancer activity against human U373 MG cells assessed as reduction in cell viability incubated for 72 hrs by MTT assay. The test is classed as functional, cell-based, U-373MG ATCC.
Test [2] has as its system U-251. As to the kind of experiment: Cytotoxicity against human U-251MG cells assessed as reduction in cell growth. Format: functional, cell-based.
For test [3], the system named is CAKI-1. The test can be described thus: Antitumor activity against human CAKI-1 cells xenografted in BALB/c athymic nude mouse assessed as inhibition of tumor growth at 5 mg/kg, po administered 5 times per week and measured for 3 times per week for 42 days relative to control. The conditions noted are these: CAKI-1, 1008 h, time 42 day, read-out: TGI. Format: functional.

The nature of test [4]: Cytotoxicity against rat ACNU-resistant C6 cells assessed as reduction in cell growth incubated for 24 hrs by MTT assay. The test is classed as functional, cell-based.
Test [5] in a line: Cytotoxicity against rat ACNU-resistant C6/ACNU cells assessed as reduction in cell growth in presence of reserpine at 10 uM incubated for 24 hrs by MTT assay. Format: functional, cell-based.
Test [6] in a line: Cytotoxicity against rat ACNU-resistant C6 cell assessed as reduction in cell growth in presence of reserpine at 10 uM incubated for 24 hrs by MTT assay. Format: functional, cell-based.
Test [7] is described as follows: Antitumor activity against rat C6/ACNUcells implanted in Wistar rat assessed as increase in life span at 1 mg/kg relative to control. Format: functional, C6/ACNU.
Test [8] is described as follows: Cytotoxicity against rat ACNU-resistant C6/ACNU cells assessed as reduction in cell growth in presence of reserpine at 20 uM incubated for 24 hrs by MTT assay. Format: functional, cell-based.
The nature of test [9]: Cytotoxicity against rat ACNU-resistant C6 cell assessed as reduction in cell growth in presence of reserpine at 20 uM incubated for 24 hrs by MTT assay. The test is classed as functional, cell-based.
Test [10] in a line: Cytotoxicity against rat ACNU-resistant C6/ACNU cells assessed as reduction in cell growth incubated for 24 hrs by MTT assay. Format: functional, cell-based.
The test system of test [11] is C6. As to the kind of experiment: Anticancer activity against rat C6 cells assessed as reduction in cell growth at 10 ug/ml incubated for 24 hrs by MTT assay relative to control. Format: functional.
The nature of test [12]: Antiproliferative activity against human TMZ-resistant A-172 cells assessed as reduction in cell growth incubated for 48 hrs by MTT assay. The conditions noted are these: TMZ-resistant A-172 cell. Format: functional, cell-based.
Test [13] in a line: Antiproliferative activity against human TMZ-sensitive LN-229 cells assessed as reduction in cell growth incubated for 48 hrs by MTT assay. Format: functional, cell-based, TMZ-sensitive LN-229 cell. Conditions: LN-229, 48 h.
Test [14] deals with C6. The test can be described thus: Antitumor activity against rat C6 cells implanted in athymic nude mouse assessed as reduction in tumor volume at 300 mg/kg, IC administered once daily for 21 days relative to control. The test is classed as functional. Further details: scale not given: the % may be the effect or the level left. Conditions: time 21 day.
Test [15] is described as follows: Downregulation of HIF-1alpha expression in human T98G cells at 150 uM relative to control. Format: functional.
In test [16] the test system is T98G. The test can be described thus: Induction of apoptosis in human T98G cells assessed as fold increase in apoptosis at 10 uM under radiation measured after 24 hrs by annexin V and PI staining based flow cytometry analysis (Rvb=3.7). The test is classed as functional.
Test [17] has as its system C6. The test can be described thus: Antitumor activity against rat C6 cells implanted in athymic nude mouse assessed as reduction in tumor volume at 300 mg/kg, sc administered once daily for 21 days relative to control. Format: functional. Further details: scale not given: the % may be the effect or the level left. Conditions: time 21 day.
The nature of test [18]: Antiproliferative activity against human TMZ-resistant LN-229 cells assessed as reduction in cell growth incubated for 48 hrs by MTT assay. Format: functional, cell-based, TMZ-resistant LN-229 cell. Conditions: LN-229, 48 h.
Test [19] relates to HUVEC. The test can be described thus: Antivascular activity against HUVEC cells assessed as inhibition of capillary tube formation at 50 incubated for 6 hrs by microscopy based analysis relative to control. The test is classed as functional, Homo sapiens. More on the design: scale not given: the % may be the effect or the level left.
Test [20] is described as follows: Antitumor activity against mouse GL261 cells implanted in C57BL/6 mouse model assessed as increase in tumor growth delay under radiation at 150 mg/kg via oral gavage (reference value: 12.7+/-2.8 days). The test is classed as functional.
The nature of test [21]: Antitumor activity against mouse GL261 cells implanted in C57BL/6 mouse model assessed as fold reduction in cell proliferation under radiation at 150 mg/kg via oral gavage (reference value: 3.3 fold). Format: functional.
Test [22] is described as follows: Downregulation of HIF-1alpha expression in human U-87 MG cells at 150 uM relative to control. Format: functional, U-87MG ATCC.
Test [23] concerns HUVEC. The test can be described thus: Antivascular activity against HUVEC cells assessed as inhibition of capillary tube formation at 150 incubated for 6 hrs by microscopy based analysis relative to control. Format: functional, Homo sapiens. More on the design: scale not given: the % may be the effect or the level left.
Test [24] relates to U-87 MG. As to the kind of experiment: Antiproliferative activity against human U-87 MG cells assessed as reduction in inhibition of cell growth incubated for 72 hrs by MTT assay. The test is classed as functional, cell-based, U-87MG ATCC.
Test [25] has as its system U-118-MG. The test can be described thus: Antiproliferative activity against human U-118-MG cells assessed as reduction in inhibition of cell growth incubated for 72 hrs by MTT assay. Format: functional, cell-based.
For test [26], the system named is LN-229. As to the kind of experiment: Antiproliferative activity against human LN-229 cells assessed as reduction in inhibition of cell growth incubated for 72 hrs by MTT assay. The test is classed as functional, cell-based. The conditions noted are these: LN-229, 72 h.
In test [27] the test system is T98G. The test can be described thus: Antiproliferative activity against human T98G cells assessed as reduction in inhibition of cell growth incubated for 72 hrs by MTT assay. Format: functional, cell-based.
Test [28] is described as follows: Antiproliferative activity against human TMZ-sensitive A-172 cells assessed as reduction in cell growth incubated for 48 hrs by MTT assay. The test is classed as functional, cell-based, TMZ-sensitive A-172 cell. Conditions: A 172, 48 h.
A short description of test [29]: Antiproliferative activity against human TMZ-resistant U-251MG cell assessed as reduction in cell growth incubated for 48 hrs by MTT assay. Format: functional, cell-based. The conditions noted are these: U-251, 48 h.
Test [30] is described as follows: Antiproliferative activity against human TMZ-sensitive U-251MG cells assessed as reduction in cell growth incubated for 48 hrs by MTT assay. Conditions: U-251, 48 h. Format: functional, cell-based, TMZ-sensitive U-251MG cell.
The test system of test [31] is HUVEC. The test can be described thus: Antivascular activity against HUVEC cells assessed as inhibition of capillary tube formation at 100 incubated for 6 hrs by microscopy based analysis relative to control. The test is classed as functional, Homo sapiens. Further details: scale not given: the % may be the effect or the level left.
Test [32] can be described thus: Antitumor activity against mouse GL261 cells implanted in C57BL/6 mouse model assessed as increase in tumor growth delay without radiation at 150 mg/kg via oral gavage (reference value: 12.7+/-2.8 days). Format: functional.
Test [33] relates to C6. The test can be described thus: Antiproliferative activity against rat C6 cells assessed as reduction in cell growth measured for 96 hrs by WST-1 assay. The test is classed as functional, cell-based. Conditions: C6, 96 h.
Test [34] concerns U-87 MG. The test can be described thus: Antitumor activity against human U-87 MG cells xenografted in BALB/c nude mouse model assessed as reduction in tumor volume at 40 mg/kg, ip administered twice a day for 4 days relative to control. Further details: scale not given: the % may be the effect or the level left. The test is classed as functional, U-87MG ATCC. The conditions noted are these: time 4 day.

The subject of test [35] is T98G. As to the kind of experiment: Anticancer activity against human T98G cells assessed as reduction in cell viability. Format: functional, cell-based.
For test [36], the system named is U-87 MG. As to the kind of experiment: Antiproliferative activity against human U-87 MG cells assessed as reduction in cell viability incubated for 72 hrs by WST-8 reagent based assay. The test is classed as functional, U-87MG ATCC.
The test system of test [37] is T98G. As to the kind of experiment: Inhibition of colony formation in human T98G cells assessed as reduction in number of cell clone measured after 14 days by crystal violet staining based microscopic analysis. Conditions: 336 h. The test is classed as functional.
Test [38] concerns T98G. As to the kind of experiment: Antiproliferative activity against human T98G cells assessed as reduction in cell viability incubated for 72 hrs by WST-8 reagent based assay. The test is classed as functional.
Test [39] in a line: Inhibition of colony formation in human U-251MG cells assessed as reduction in number of cell clone measured after 14 days by crystal violet staining based microscopic analysis. Format: functional. Conditions: 336 h.
The subject of test [40] is SH-SY5Y. The test can be described thus: Cytotoxicity against human SH-SY5Y cells measured for 48 hrs by SRB assay. Format: functional, cell-based.
Test [41] has as its system CCRF-CEM. As to the kind of experiment: Cytotoxicity against human CCRF-CEM cells assessed as reduction in cell viability incubated for 72 hrs by resazurin dye based analysis. Format: functional.
Test [42] in a line: Antitumor activity against rat C6/ACNUcells implanted in Wistar rat assessed as increase in life span at 250 mg/kg relative to control. The test is classed as functional, C6/ACNU.
A short description of test [43]: Cytotoxicity against human GBM cells harboring EGFR mutation assessed as reduction in cell viability incubated for 72 hrs by resazurin dye based assay. Format: functional.
Test [44] concerns C6. The test can be described thus: Antitumor activity against rat C6 cells implanted in Wistar rat assessed as increase in life span at 250 mg/kg relative to control. Format: functional.
Test [45] concerns 9L. The test can be described thus: Cytotoxicity against rat 9L cells assessed as reduction in cell viability incubated for 24 hrs by tryphan-blue dye based assay. The test is classed as functional.
Test [46] can be described thus: Cytotoxicity against human U-87 MG cells harboring EGFR mutation assessed as reduction in cell viability incubated for 72 hrs by resazurin dye based assay. The test is classed as functional, U-87MG ATCC.
Test [47] relates to ADR5000 cell line. The test can be described thus: Cytotoxicity against human CEM/ADR5000 cells assessed as reduction in cell viability incubated for 72 hrs by resazurin dye based analysis. Format: functional. Conditions: ADR5000, 72 h.
Test [48] is described as follows: Cytotoxicity against rat 9L/ACNU cells assessed as reduction in cell viability incubated for 24 hrs by tryphan-blue dye based assay. The test is classed as functional.

In the case of `COc1cc2c(cc1O)CCN[C@]21CS[C@@H]2c3c(OC(C)=O)c(C)c4c(c3[C@@H](COC1=O)N1[C@@H]2[C@H]2c3c(cc(C)c(OC)c3O)C[C@@H]([C@@H]1C#N)N2C)OCO4`, in [1], the half-inhibitory concentration (IC50) was 0.0031 µM.

With `COc1ccc2c3c(c4cc(OC)c(OC)cc4c2c1)C[C@H]1CCCN1C3` [(-)-ANTOFINE], the IC50 in test [2] was found to be 0.211 µM. The inhibition in vivo at 5 mg/kg in test [3] came to 59%.

Regarding `Cc1ncc(CNC(=O)N(CCCl)N=O)c(N)n1.Cl` [NIMUSTINE HYDROCHLORIDE], the half-maximal inhibitory concentration (IC50) in test [4] came to 8.3 µg/mL; in test [5], 8 µg/mL; in test [6], 4.1 µg/mL; in test [8], 2.5 µg/mL; in test [9], 3.1 µg/mL; in [10] it was 120 µg/mL. In addition, in [7], the Activity is recorded as 143%.

Consider `COc1ccc2c(c1OC)C(=O)O[C@@H]2[C@H]1c2c(cc3c(c2OC)OCO3)CCN1C` [NOSCAPINE], for which, in test [11], the inhibition at 10 µg/mL came out at 49%. Besides, the IC50 is 60 µM in test [12]; 70 µM in [13]; 75 µM in test [18]; 131 µM in test [24]; 91 µM in test [25]; 86 µM in [26]. The IC50 in test [27] worked out at 97 µM; in test [28], 20 µM; in test [29] it was 30 µM; in test [30], 40 µM; in test [33], 250 µM. The Activity is recorded as 78% in [14]; 90% in [15]; 60% in test [17]; 30% in test [19]; 60% in test [22]; 40% in [23]. Further, the Activity in test [31] is listed as 40%. In addition, the entries for the “fold change (FC)” value in [16] and in test [21] were 6.4 and 5.6, respectively. The figures for the Time in test [20] and in [32] were 18 days and 8 days, respectively.

As to `COc1ccc(Cc2nccc3cc(OC)c(OC)cc23)cc1OC` [PAPAVERINE], the Activity in test [34] is reported as 63%. Moreover, the EC50 in test [35] was found to be 3.1 µM; in test [36], 42 µM; in test [37], 4.5 µM; in test [38], 42 µM; in test [39] it was 11 µM.

In [40], `OCc1ccc(-c2nccc3c2[nH]c2ccccc23)o1` [PERLOLYRIN] displayed an IC50 of 23.9 µM.

For the compound `COC(=O)[C@H]1[C@H]2C[C@@H]3c4[nH]c5cc(OC)ccc5c4CCN3C[C@H]2C[C@@H](OC(=O)c2cc(OC)c(OC)c(OC)c2)[C@@H]1OC` [RESERPINE], the IC50 in [41] came to 14.5 µM; in test [43], 88 µM; in [45], 1 µM; in test [46], 9.15 µM; in [47], 13.2 µM; in test [48] it was 2 µM. For the same compound, the values for the Activity in [42] and in test [44] were 142% and 143%, respectively.
